Experimental data from PubChem BioAssay (NCI).
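Test compounds were applied to cells in 96-well plates for 48 hours at 5 doses. TGI: concentration producing complete growth inhibition.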

Each molecule was assayed on LOX IMVI melanoma (assay: NCI anticancer screen, dose series, 48 h).

Row | Structure (SMILES) | TGI [µM]
1 | CC[C@@]1(O)C(=O)OCc2c1cc1n(c2=O)Cc2c-1nc1ccccc1c2/C=N\NC(=O)C[n+]1ccccc1 | 6
2 | COc1ccccc1C[C@@H]1OC2(C=CC(=O)CC2SC(=O)c2ccccc2)O[C@H]1Cc1ccccc1OC (some centres not stated) | 1.9
3 | COc1ccc(CC2Cc3ccccc3CCN2)cc1OC (configuration not stated) | > 50
4 | CN(C)CCn1c(=O)c2ccc(NCCNCCO)c3c(=O)c4ccccc4n(c1=O)c23 | 0.78
5 | OCC1OC(NC(=S)NCCC(F)(F)C(F)(F)C(F)(F)C(F)(F)C(F)(F)C(F)(F)F)C(O)C(O)C1O (configuration not stated) | > 100
6 | CSC1=N/C(=C\c2ccc(C)cc2)C(=O)N1 | > 100
7 | COc1cc2c(cc1OCCCNC(=O)c1cc3ccccc3[nH]1)N=C[C@@H]1CCCN1C2=O | > 100
8 | COC(=O)/C(C)=N/NC(=S)SC | > 100
9 | CC1=CC[C@H](C[C@H](C#CCCCC2OCCO2)O[Si](C(C)C)(C(C)C)C(C)C)C(=O)CC1 | > 100
10 | CC1=NN(c2cccc(S(=O)(=O)O)c2)C2(C1)C(Cl)C(=O)N2c1nc2ccccc2s1 (configuration not stated) | 3.77
11 | [O-][n+]1nc(N2CCOCC2)nc2ccccc21 | > 100
12 | COc1ccc(NC(=S)Nc2cc(C)ccn2)cc1 | > 100
13 | Cc1sc2nc(N(C)C)oc(=O)c2c1C | > 100
14 | NC(CSS(=O)(=O)O)=NC1CC2CCC1C2 (configuration not stated) | > 100
15 | CN1CCC23c4c5ccc(Oc6nnnn6-c6ccccc6)c4OC2c2[nH]c4ccccc4c2CC3(O)C1C5 (configuration not stated) | 3.75
16 | Cc1cn(C2OC(CO[Si](C)(C)C(C)(C)C)/C(=C\C#N)C2O[Si](C)(C)C(C)(C)C)c(=O)[nH]c1=O (configuration not stated) | > 100
17 | C[C@]12CCC(O)CC1=CC[C@@H]1[C@@H]2CC[C@]2(C)C(O)[C@H](n3ccnc3)C[C@@H]12 (some centres not stated) | > 100
18 | O=C(CC(O)(C(F)(F)F)C(F)(F)F)C(c1ccccc1)C(O)(C(F)(F)F)C(F)(F)F (configuration not stated) | > 100
19 | CC(C)CCCC(C)[C@H]1CC[C@H]2n3c(nnc3-c3ccccc3)CCC[C@]12C (some centres not stated) | 12.5
20 | OC1=C2c3ccccc3NC2Oc2cc(F)ccc21 (configuration not stated) | 39.3

The molecules below were run on MALME-3M melanoma (assay: NCI anticancer screen, dose series, 48 h).

Row | Structure (SMILES) | TGI [µM]
21 | CCOc1cccc(C=Nc2ccccc2SSc2ccccc2N=Cc2cccc(OCC)c2O)c1O | 23.6
22 | Cc1c2c(cc3c1C(=O)C(=O)C([C@@H](C)CO)=C3O)C(C)(C)CCC2 | 57.1
23 | C[N+]12CCCCC1C(COc1cccc3cccnc13)CCC2 (configuration not stated) | > 100
24 | Cc1ccc(S(=O)(=O)NC(=O)NCc2ccc(S(N)(=O)=O)cc2)cc1 | > 100
25 | NC(=O)NC1NC(=O)NC1=O (configuration not stated) | > 100
26 | CC[C@@]1(O)C(=O)OCc2c1cc1n(c2=O)Cc2c-1nc1ccccc1c2/C=N\NC(=O)C[n+]1ccccc1 | > 100
27 | COc1ccccc1C[C@@H]1OC2(C=CC(=O)CC2SC(=O)c2ccccc2)O[C@H]1Cc1ccccc1OC (some centres not stated) | 4.26
28 | COc1ccc(CC2Cc3ccccc3CCN2)cc1OC (configuration not stated) | > 50
29 | CN(C)CCn1c(=O)c2ccc(NCCNCCO)c3c(=O)c4ccccc4n(c1=O)c23 | 3.41
30 | OCC1OC(NC(=S)NCCC(F)(F)C(F)(F)C(F)(F)C(F)(F)C(F)(F)C(F)(F)F)C(O)C(O)C1O (configuration not stated) | > 100
31 | CSC1=N/C(=C\c2ccc(C)cc2)C(=O)N1 | > 100
32 | CC1=CC[C@H](C[C@H](C#CCCCC2OCCO2)O[Si](C(C)C)(C(C)C)C(C)C)C(=O)CC1 | > 100
33 | CC1=NN(c2cccc(S(=O)(=O)O)c2)C2(C1)C(Cl)C(=O)N2c1nc2ccccc2s1 (configuration not stated) | 17.3
34 | [O-][n+]1nc(N2CCOCC2)nc2ccccc21 | > 100
35 | Cc1sc2nc(N(C)C)oc(=O)c2c1C | > 100
36 | Cc1cccc(N/C(=C(/C(Cl)=C(Cl)Cl)[N+](=O)[O-])n2nnc3ccccc32)c1 | 28.1
37 | NC(CSS(=O)(=O)O)=NC1CC2CCC1C2 (configuration not stated) | > 100
38 | CN1CCC23c4c5ccc(Oc6nnnn6-c6ccccc6)c4OC2c2[nH]c4ccccc4c2CC3(O)C1C5 (configuration not stated) | 3.11
39 | C[C@]12CCC(O)CC1=CC[C@@H]1[C@@H]2CC[C@]2(C)C(O)[C@H](n3ccnc3)C[C@@H]12 (some centres not stated) | > 100
40 | O=C(CC(O)(C(F)(F)F)C(F)(F)F)C(c1ccccc1)C(O)(C(F)(F)F)C(F)(F)F (configuration not stated) | > 100
41 | CC(C)CCCC(C)[C@H]1CC[C@H]2n3c(nnc3-c3ccccc3)CCC[C@]12C (some centres not stated) | 53.1
42 | OC1=C2c3ccccc3NC2Oc2cc(F)ccc21 (configuration not stated) | 48.5

The molecules below were run on MDA-MB-231 breast (assay: NCI anticancer screen, dose series, 48 h).

Row | Structure (SMILES) | TGI [µM]
43 | CCOc1cccc(C=Nc2ccccc2SSc2ccccc2N=Cc2cccc(OCC)c2O)c1O | 35
44 | Cc1c2c(cc3c1C(=O)C(=O)C([C@@H](C)CO)=C3O)C(C)(C)CCC2 | > 100
45 | C[N+]12CCCCC1C(COc1cccc3cccnc13)CCC2 (configuration not stated) | > 100
46 | Cc1ccc(S(=O)(=O)NC(=O)NCc2ccc(S(N)(=O)=O)cc2)cc1 | > 100
47 | NC(=O)NC1NC(=O)NC1=O (configuration not stated) | > 100
48 | CC[C@@]1(O)C(=O)OCc2c1cc1n(c2=O)Cc2c-1nc1ccccc1c2/C=N\NC(=O)C[n+]1ccccc1 | > 100
49 | COc1ccccc1C[C@@H]1OC2(C=CC(=O)CC2SC(=O)c2ccccc2)O[C@H]1Cc1ccccc1OC (some centres not stated) | 7.23
50 | COc1ccc(CC2Cc3ccccc3CCN2)cc1OC (configuration not stated) | > 50
51 | CN(C)CCn1c(=O)c2ccc(NCCNCCO)c3c(=O)c4ccccc4n(c1=O)c23 | 0.852
52 | OCC1OC(NC(=S)NCCC(F)(F)C(F)(F)C(F)(F)C(F)(F)C(F)(F)C(F)(F)F)C(O)C(O)C1O (configuration not stated) | > 100
53 | CSC1=N/C(=C\c2ccc(C)cc2)C(=O)N1 | > 100
54 | COc1cc2c(cc1OCCCNC(=O)c1cc3ccccc3[nH]1)N=C[C@@H]1CCCN1C2=O | > 35.2
55 | COC(=O)/C(C)=N/NC(=S)SC | > 100
56 | CC1=CC[C@H](C[C@H](C#CCCCC2OCCO2)O[Si](C(C)C)(C(C)C)C(C)C)C(=O)CC1 | > 100
57 | CC1=NN(c2cccc(S(=O)(=O)O)c2)C2(C1)C(Cl)C(=O)N2c1nc2ccccc2s1 (configuration not stated) | 23.1
